3 compounds from publication PMC7140380, “Magnolia extract is effective for the chemoprevention of oral cancer through its ability to inhibit mitochondrial respiration at complex I” (Cell Communication and Signaling : CCS, 2020) can be followed below.

Where two headings read alike, the source gives them in different places.

Experiment [1] has as its system CAL 27 cells. The experiment can be described thus: Cell proliferation assay (IncuCyte real-time cell confluence). The class given is cell-based. To be noted: Homo sapiens. How it is done: Cells were seeded in 96-well tissue culture plates at 1000–3000 cells per well. Twenty-four hours after seeding, cells were exposed to various concentrations of ME, whereas control cells received fresh medium with an equivalent amount of dimethyl sulfoxide (DMSO) vehicle. Plates were incubated at 37 °C under 5% CO2 and monitored using the IncuCyte Live Cell analysis system (Essen Bioscience, Ann Arbor, MI). […] All assays were performed in triplicate or quadruplicate.

The test system of experiment [2] is STAT3. The experiment is described as follows: Western blot, STAT3 phosphorylation in CAL 27 cells. Type of experiment: cell-based, human. To be noted: single agents at concentrations close to their IC50 (HNK 20 μM, MGN 40 μM, MHNK 20 μM). How it is done: (§1) CAL 27 cells were treated with vehicle control (DMSO), HNK (20 μM), MGN (40 μM), and MHNK (20 μM) for 4 h and then lysed with a lysis buffer containing a proteinase inhibitor cocktail (Cell Signaling Technology, Danvers, MA), sheared 10 times by passage through a 28-gauge needle, and centrifuged at 16,000 g for 30 min; the protein concentration of the supernatant was determined by the Bradford method. Lysates, normalized for equal protein loading, were analyzed by the PathScan RTK Signaling Array (Cell Signaling Technology, Danvers, MA) and the LI-COR Odyssey infrared imaging system (LI-COR Biosciences-Biotechnology, Lincoln, NE).
(§2) Cells were lysed with RIPA buffer containing a proteinase inhibitor cocktail (Fisher Scientific, Pittsburg, PA), sheared 10 times by passage through a 28-gauge needle, and centrifuged at 16,000 g for 30 min; the supernatants were normalized for protein concentration as determined by the Bradford method. Lysates were boiled for 5 min and resolved on 4–12% sodium dodecyl sulfate polyacrylamide gel electrophoresis (SDS-PAGE) gels (Invitrogen, Carlsbad, CA). The blots were probed with the following primary antibodies from Cell Signaling Technology (Danvers, MA): p-STAT3-Tyr705, p-STAT3-Ser727, HKII, P70, and P70S6K. The following antibodies were from Santa Cruz Biotechnology (Dallas, TX): anti-actin, anti-Prx1 and anti-Prx3.
A general note: A western blot detects proteins with antibodies after separation by electrophoresis.

Experiment [3] concerns hexokinase II (HKII). The experiment is described as follows: Western blot, HKII levels in CAL 27 cells. Type of experiment: cell-based, human. Particulars: single agents at concentrations close to their IC50 (HNK 20 μM, MGN 40 μM, MHNK 20 μM). How it is done: as §1, §2
For experiment [4], the system named is 4NQO-induced oral cancer. The experiment is described as follows: 4NQO-induced oral carcinogenesis in C57BL/6 J mice. Type of experiment: in vivo. To be noted: 20 mg/kg oral.
Method: Oral tumors were induced by exposing mice to 4NQO at a dose of 50 μg/mL in drinking water for 16 consecutive weeks. One week following the first dose of 4NQO, mice were given ME or the individual active components in ME via oral administration (five days/week for the next 20 consecutive weeks). Animal body weights and 4NQO-water consumption were monitored weekly. 21 weeks after the start of 4NQO treatment, mice were imaged by MRI. Mice were euthanized and oral tissues were collected to assess total oral tumor volume (sum of V) for each mouse. A portion of normal appearing tissue and oral tumor from each mouse were flash frozen in liquid nitrogen for molecular analysis. Remaining oral tissues were embedded in paraffin for pathologic analysis as previously described and for immunohistochemistry (IHC) analysis of biomarkers. In addition, the oral cavity, esophagus, stomach/forestomach, lung, and other major organs were examined carefully for any signs of abnormality.
Mice were imaged using a 9.4 T MRI (Bruker, Billerica, MA) with a custom birdcage style Quadrature coil (Doty Scientific, Columbia, SC). Mice were anesthetized (2 min) initially in a chamber using a mixture of oxygen (3 L/min) and isofluorane (4%). Once an animal was fully anesthetized, optical lubricant was placed on each eye to prevent drying. […]
The subject of experiment [5] is p70S6K. The experiment can be described thus: Western blot, p70S6K phosphorylation in CAL 27 cells. The class given is cell-based, human. To be noted: single agents at concentrations close to their IC50 (HNK 20 μM, MGN 40 μM, MHNK 20 μM). How it is done: as §1, §2
Setting [6] is: CAL-27, read-out: IC50 as single agents, cell proliferation.

As to `C=CCc1ccc(O)c(-c2ccc(O)c(CC=C)c2)c1` [HNK, 5,3′-diallyl-2,4′-dihydroxybiphenyl], the IC50 in experiment [1] (CAL 27 cells, single agents, read-out: IC50 as single agents, cell proliferation) came out at 19 µM. The “phosphorylation of STAT3 (p-STAT3 Ser727)” value in experiment [2] is listed as “inhibited”.
For `C=CCc1ccc(O)c(-c2ccc(OC)c(CC=C)c2)c1` [MHNK, 3,5′-diallyl-2′-hydroxy-4-methoxybiphenyl], the IC50 in experiment [1] (setting [6]) worked out at 19 µM. For the same compound, in experiment [3], the “levels of hexokinase II (HKII)” value was “decreased”. Also, the “suppression of 4NQO-induced oral tumors as sole agent, compared with the other single agents” value in experiment [4] is reported as “greatest effect”.
As to `C=CCc1ccc(O)c(-c2cc(CC=C)ccc2O)c1` [MGN, 5,5′-diallyl-2,2′-dihydroxybiphenyl], the IC50 in experiment [1] (setting [6]) stood at 49 µM. In addition, the “phosphorylation of p70S6K” value in experiment [5] is listed as “inhibited”.
